In patent US20180015065A1, “METHODS OF TREATING UREA CYCLE DISORDERS” (Horizon Therapeutics, LLC, priority 2013, published 2018):
Values joined by “and” are separate entries in the source; they are usually repeats but may differ in a detail not shown here. Equal values may be shown once. Read-outs that look alike come from different tables or passages of the source.

Assays:
[1] = phase 1; dosages equivalent to the highest approved NaPBA dosage of 20 g/day; cited from earlier work
[2] = Spot urinary PAGN level by age group, all studies; assay type: in vivo, human; details: spot urine after overnight fast
Description: Subjects from all studies who had spot urine samples were divided into three age groups: less than 2 years of age; 2 to less than 6 years of age; and 6 years of age and older. Spot urine samples were collected from subjects after an overnight fast, and urinary PAGN levels were measured.

[3] = system: ammonia; details: cited from earlier work
[4] = Spot urinary PAGN level by dose category, HPN-100-012 safety extension; assay type: in vivo, human; details: pediatric subjects under 6 years, spot urine at 0 hours after overnight fast
Description: Pediatric subjects under 6 years of age from the HPN-100-012 safety extension study were divided into three dosing groups: less than 6 mL/m^2, 6-10 mL/m^2, and greater than 10 mL/m^2. Spot urine samples were collected from subjects at 0 hours (i.e., after an overnight fast), and urinary PAGN levels were measured.

[5] = Spot urinary PAGN level by BSA group, subjects 2 years of age and older; assay type: in vivo, human
Description: Subjects in Example 4 from all UCD studies and the healthy volunteer study (HPN-100-010) who were 2 years of age and older were divided into two groups based on their BSA: less than or equal to 1.3 m^2 (≦1.3 m^2) and greater than 1.3 m^2 (>1.3 m^2). Spot urine samples were collected from subjects at 24 hours (i.e., after an overnight fast), and urinary PAGN levels were measured.

[6] = Spot urinary PAGN level by BSA group, all UCD studies and healthy volunteer study HPN-100-010; assay type: in vivo, human; details: spot urine at 24 hours after overnight fast
Description: Subjects from all UCD studies and the healthy volunteer study (HPN-100-010) were divided into two groups based on their BSA: less than or equal to 1.3 m^2 (≦1.3 m^2) and greater than 1.3 m^2 (>1.3 m^2). Spot urine samples were collected from subjects at 24 hours (i.e., after an overnight fast), and urinary PAGN levels were measured.

[7] = BSA > 1.3 m^2, spot urine at 24 hours after overnight fast
[8] = BSA ≦ 1.3 m^2, spot urine at 24 hours after overnight fast

In the case of O=C(CCCc1ccccc1)OCC(COC(=O)CCCc1ccccc1)OC(=O)CCCc1ccccc1 [HPN-100, glyceryl tri-[4-phenylbutyrate]], the Safety of administration [1] is listed as “established the safety”, the “U-PAGN, 10th percentile” value ([2]; age group 2-<6 years) is listed as 1717 µg/mL and the “U-PAGN, 25th percentile” value ([2]; age group 2-<6 years) is listed as 5146 µg/mL. The “U-PAGN, 75th percentile” value ([2]; age group 2-<6 years) was 20603 µg/mL, the “U-PAGN, 90th percentile” value ([2]; age group 2-<6 years) was 27728 µg/mL and the “U-PAGN, maximum” value ([2]; age group 2-<6 years) was 43372 µg/mL. For the same molecule, the “U-PAGN, mean” value ([2]; age group 2-<6 years) was 13420 µg/mL, the “U-PAGN, median” value ([2]; age group 2-<6 years) was 12114 µg/mL and the “U-PAGN, minimum” value ([2]; age group 2-<6 years) was 119 µg/mL. For the same molecule, the “U-PAGN, 10th percentile” value ([2]; age group <2 years) was 3265 µg/mL, the “U-PAGN, 25th percentile” value ([2]; age group <2 years) was 8996 µg/mL and the “U-PAGN, 75th percentile” value ([2]; age group <2 years) was 25019 µg/mL. For the same molecule, the “U-PAGN, 90th percentile” value ([2]; age group <2 years) was 28028 µg/mL, the “U-PAGN, maximum” value ([2]; age group <2 years) was 44298 µg/mL and the “U-PAGN, mean” value ([2]; age group <2 years) was 17330 µg/mL. For the same molecule, the “U-PAGN, median” value ([2]; age group <2 years) was 17229 µg/mL, the “U-PAGN, minimum” value ([2]; age group <2 years) was 348 µg/mL and the “U-PAGN, 10th percentile” value ([2]; age group ≧6 years) was 1564 µg/mL. For the same molecule, the “U-PAGN, 25th percentile” value ([2]; age group ≧6 years) was 4032 µg/mL, the “U-PAGN, 75th percentile” value ([2]; age group ≧6 years) was 13846 µg/mL and the “U-PAGN, 90th percentile” value ([2]; age group ≧6 years) was 21633 µg/mL. For the same molecule, the “U-PAGN, maximum” value ([2]; age group ≧6 years) was 60960 µg/mL, the “U-PAGN, mean” value ([2]; age group ≧6 years) was 10103 µg/mL and the “U-PAGN, median” value ([2]; age group ≧6 years) was 7185 µg/mL. The “U-PAGN, minimum” value ([2]; age group ≧6 years) was 642 µg/mL, the Mean ammonia values ([3]; HPN-100-012 safety extension, pediatric UCD patients under six years) was “within normal limits” and the “Ammonia control compared with NaPBA” value ([3]; phase 2 HPN-100-005, 11 pediatric UCD patients age six years and up, PBA equimolar dosage) was “at least equivalent to NaPBA”. The “Ammonia control compared with NaPBA” value ([3]; phase 2 studies overall, equivalent dosages) was “at least equal to NaPBA”, the “Ammonia control compared with NaPBA” value ([3]; phase 3 HPN-100-006, 45 adult UCD patients, PBA equivalent dosage) was “non-inferior to NaPBA” and the Mean ammonia levels ([3]; phase 3 extended dosing HPN-100-007 and HPN-100-005 safety extension, adult and pediatric UCD subjects) was “within normal limit”. The “Urinary PAGN, 10th percentile” value ([4]; dose 6-10 mL/m^2) was 1288 µg/mL, the “Urinary PAGN, 25th percentile” value ([4]; dose 6-10 mL/m^2) was 3053 µg/mL and the “Urinary PAGN, 75th percentile” value ([4]; dose 6-10 mL/m^2) was 20796 µg/mL. For the same molecule, the “Urinary PAGN, 90th percentile” value ([4]; dose 6-10 mL/m^2) was 24429 µg/mL, the “Urinary PAGN, mean” value ([4]; dose 6-10 mL/m^2) was 12313 µg/mL and the “Urinary PAGN, median” value ([4]; dose 6-10 mL/m^2) was 12144 µg/mL. For the same molecule, the “Urinary PAGN, 10th percentile” value ([4]; dose <6 mL/m^2) was 643 µg/mL, the “Urinary PAGN, 25th percentile” value ([4]; dose <6 mL/m^2) was 1256 µg/mL and the “Urinary PAGN, 75th percentile” value ([4]; dose <6 mL/m^2) was 14290 µg/mL. For the same molecule, the “Urinary PAGN, 90th percentile” value ([4]; dose <6 mL/m^2) was 20797 µg/mL, the “Urinary PAGN, mean” value ([4]; dose <6 mL/m^2) was 8353 µg/mL and the “Urinary PAGN, median” value ([4]; dose <6 mL/m^2) was 3298 µg/mL. The “Urinary PAGN, 10th percentile” value ([4]; dose >10 mL/m^2) was 264 µg/mL, the “Urinary PAGN, 25th percentile” value ([4]; dose >10 mL/m^2) was 6990 µg/mL and the “Urinary PAGN, 75th percentile” value ([4]; dose >10 mL/m^2) was 26247 µg/mL. The “Urinary PAGN, 90th percentile” value ([4]; dose >10 mL/m^2) was 28084 µg/mL, the “Urinary PAGN, mean” value ([4]; dose >10 mL/m^2) was 16842 µg/mL and the “Urinary PAGN, median” value ([4]; dose >10 mL/m^2) was 17089 µg/mL. The “U-PAGN, 5th percentile” value [5, 7] was 3379.24 µg/mL, the “U-PAGN, 10th percentile” value [5, 7] was 4078.79 µg/mL and the “U-PAGN, 25th percentile” value [5, 7] was 5259 µg/mL and 5259.01 µg/mL. The “U-PAGN, 75th percentile” value [5, 7] was 11916.08 µg/mL, the “U-PAGN, 90th percentile” value [5, 7] was 15993.51 µg/mL and the “U-PAGN, 95th percentile” value [5, 7] was 20320.32 µg/mL. For the same molecule, the “U-PAGN, maximum” value [5, 7] was 30304.04 µg/mL, the “U-PAGN, mean” value [5, 7] was 9058.68 µg/mL and the “U-PAGN, median” value [5, 7] was 7748.84 µg/mL. The “U-PAGN, minimum” value [5, 7] was 1157.49 µg/mL, the “U-PAGN, 5th percentile” value [5, 8] was 621.6 µg/mL and the “U-PAGN, 10th percentile” value [5, 8] was 3479.50 µg/mL. For the same molecule, the “U-PAGN, 25th percentile” value [5, 8] was 7412 µg/mL and 7412.48 µg/mL, the “U-PAGN, 75th percentile” value [5, 8] was 23635.08 µg/mL and the “U-PAGN, 90th percentile” value [5, 8] was 29835.07 µg/mL. For the same molecule, the “U-PAGN, 95th percentile” value [5, 8] was 33943.83 µg/mL, the “U-PAGN, maximum” value [5, 8] was 43372.15 µg/mL and the “U-PAGN, mean” value [5, 8] was 16186.11 µg/mL. The “U-PAGN, median” value [5, 8] was 15869.85 µg/mL, the “U-PAGN, minimum” value [5, 8] was 119.5 µg/mL and the “U-PAGN, 5th percentile” value ([6]; BSA > 1.3 m^2) was 3379.24 µg/mL. For the same molecule, the “U-PAGN, 10th percentile” value ([6]; BSA > 1.3 m^2) was 4078.79 µg/mL, the “U-PAGN, 25th percentile” value ([6]; BSA > 1.3 m^2) was 5259 µg/mL and 5259.01 µg/mL and the “U-PAGN, 50th percentile” value ([6]; BSA > 1.3 m^2) was 7748.84 µg/mL. The “U-PAGN, 75th percentile” value ([6]; BSA > 1.3 m^2) was 11916.08 µg/mL, the “U-PAGN, 90th percentile” value ([6]; BSA > 1.3 m^2) was 15993.51 µg/mL and the “U-PAGN, 95th percentile” value ([6]; BSA > 1.3 m^2) was 20320.32 µg/mL. The “U-PAGN, maximum” value ([6]; BSA > 1.3 m^2) was 30304.04 µg/mL, the “U-PAGN, mean” value ([6]; BSA > 1.3 m^2) was 9058.68 µg/mL and the “U-PAGN, minimum” value ([6]; BSA > 1.3 m^2) was 1157.49 µg/mL. The “U-PAGN, 5th percentile” value ([6]; BSA ≦ 1.3 m^2) was 1061.84 µg/mL, the “U-PAGN, 10th percentile” value ([6]; BSA ≦ 1.3 m^2) was 3645.97 µg/mL and the “U-PAGN, 25th percentile” value ([6]; BSA ≦ 1.3 m^2) was 8390 µg/mL and 8390.07 µg/mL. For the same molecule, the “U-PAGN, 50th percentile” value ([6]; BSA ≦ 1.3 m^2) was 17075.13 µg/mL, the “U-PAGN, 75th percentile” value ([6]; BSA ≦ 1.3 m^2) was 25465.73 µg/mL and the “U-PAGN, 90th percentile” value ([6]; BSA ≦ 1.3 m^2) was 30830 µg/mL. For the same molecule, the “U-PAGN, 95th percentile” value ([6]; BSA ≦ 1.3 m^2) was 35516.41 µg/mL, the “U-PAGN, maximum” value ([6]; BSA ≦ 1.3 m^2) was 44298.26 µg/mL and the “U-PAGN, mean” value ([6]; BSA ≦ 1.3 m^2) was 17547.48 µg/mL. For the same molecule, the “U-PAGN, minimum” value ([6]; BSA ≦ 1.3 m^2) was 119.47 µg/mL.
